Source: PMC5655689, “Therapeutic potential of the phosphino Cu(I) complex (HydroCuP) in the treatment of solid tumors” (Scientific Reports, 2017)
Values joined by “and” are separate entries in the source; they are usually repeats but may differ in a detail not shown here. Identical values can stand only once.

Key:
[1] = test system: HCT-15 human colon cancer spheroids; test: 3D spheroid cell viability, acid phosphatase (APH) assay, HCT-15; assay type: cell-based; conditions: HCT-15 spheroids, 72 h, APH test; read-out: IC50 (μM) ± SD HCT-15
Protocol: (§1) In order to improve the predictive capacity of the in vitro assays, we tested HydroCuP activity in two 3D cell cultures of human colon cancer cells, HCT-15 and LoVo. The colon cancer spheroids were treated with HydroCuP for 72 h and the cell viability was assessed by means of the acid phosphatase (APH) assay (Fig. 1, panel A).
(§2) Figure 1 Activity in 3D cell cultures. (A) Spheroids (2.5 × 10^3 cells/well) were treated for 72 h with increasing concentrations of tested compounds. The growth inhibitory effect was evaluated by means of APH test. IC50 values were calculated from the dose-survival curves by four parameter logistic model (P < 0.05). SD = standard deviation.
(§3) Spheroids were initiated in liquid overlay by seeding 2.5 × 10^3 HCT-15 and LoVo cells/well in phenol red-free RPMI-1640 medium (Sigma Chemical Co.), containing 10% FCS and supplemented with 20% methyl cellulose stock solution. A total of 150 μl of this cell suspension was transferred to each well of a round bottom non-tissue culture treated 96 well-plate (Greiner Bio-one, Kremsmünster, Austria) to allow spheroid formation within 72 h.
(§4) A modified APH assay, which is based on quantification of cytosolic acid phosphatase activity, was used for determining cell viability in spheroids. Briefly, the pre-seeded spheroids were treated with fresh medium containing the compound to be studied at the appropriate concentration (range 5–150 μM). Triplicate cultures were established for each treatment. After 72 h, each well was treated with 100 μL of the assay buffer (0.1 M sodium acetate, 0.1% Triton-X-100, supplemented with ImmunoPure p-nitrophenyl phosphate; Sigma Chemical Co.) and, following 3 h of incubation, 10 μL of 1 M NaOH solution were added. The inhibition of the cell growth induced by the tested complexes was detected by measuring the absorbance of each well at 405 nm, using a Bio-Rad 680 microplate reader. Mean absorbance for each drug dose was expressed as a percentage of the control untreated well absorbance (T/C) and plotted vs drug concentration. IC50 values, the drug concentrations that reduce the mean absorbance at 405 nm 50% of those in the untreated control wells, were calculated by four-parameter logistic (4-PL) model. Evaluation was based on means from at least four independent experiments.

[2] = test system: LoVo human colon cancer spheroids; test: 3D spheroid cell viability, acid phosphatase (APH) assay, LoVo; assay type: cell-based; conditions: 72 h, APH test, read-out: IC50 (μM) ± SD LoVo
Protocol: as §1, §2, §3, §4

[3] = test system: Lewis Lung Carcinoma (LLC); test: In vivo antitumor activity towards Lewis Lung Carcinoma (LLC) implanted i.m. in C57BL mice; design: species or system mouse; conditions: for Average tumor weight (mean ± S.D., g) / Inhibition of tumor growth (%): day 15; for Body weight changes: LLC-bearing C57BL mice
Protocol: The schedule of HydroCuP administration in vivo was initially determined by assessing the total dose that could be injected without undue toxicity for different schedules in nontumor-bearing C57BL mice (data not shown). […] Three schedules of i.p. HydroCuP were administered: early treatment (days 3, 5, 7 and 9 after tumor inoculum), intermediate treatment (days 7–14) and late treatment with split-doses (days 9–11 with a loading dose and days 12–14 with a lower maintenance dose). […] Cisplatin treatment schedule was selected according to standard protocols designed to optimize its efficacy and minimize the occurrence of adverse events. For the early treatment, control mice received the vehicle (0.9% NaCl). HydroCuP was dosed at 25, 35 and 50 mg/kg i.p. on days 3, 5, 7, 9, 11 and 13 after tumor implantation. Cisplatin was dosed at 1.5 mg/kg i.p. on days 3, 5, 7, 9, 11 and 13 after tumor implantation.
The mice were purchased from Charles River, Italy, housed in steel cages under controlled environmental conditions (constant temperature, humidity, and 12 h dark/light cycle), and alimented with commercial standard feed and tap water ad libitum. The LLC cell line was purchased from ECACC, United Kingdom. The LLC cell line was maintained in DMEM (Euroclone, Pero, Italy) supplemented with 10% heat-inactivated foetal bovine serum (Euroclone, Pero, Italy), 10 mM L-glutamine, 100 U/mL penicillin, and 100 µg/mL streptomycin in a 5% CO2 air incubator at 37 °C. The LLC was implanted intramuscularly (i.m.) as a 2 × 10^6 cell inoculum into the right hind leg of 8-week old male and female C57BL mice (24 ± 3 g body weight). The antitumor activity of HydroCuP in LLC tumor model has been investigated by means of different schedules (early treatment, intermediate treatment and late treatment) and compared with that promoted by the reference metallodrug, CDDP. In the early-stage treatment, animals were treated at day 3, 5, 7, 9, 11 and 13 after the tumor cell inoculum with an i.p. injection of HydroCuP (25, 35 and 50 mg/kg), CDDP (1.5 mg/kg) or the vehicle solution (0.9% NaCl).
In the intermediate treatment, animals were treated after 7 days from tumor implantation (visible tumor) with daily i.p. doses of HydroCuP (30 and 50 mg/kg), CDDP (1.5 mg/kg) or the vehicle solution (0.9% NaCl). In the late treatment, animals were treated after 9 days from tumor implantation (palpable tumor) with i.p. doses of HydroCuP (50 mg/kg) from day 9 to day 11 and with i.p. doses of HydroCuP (30 mg/kg) from day 12 to day 14, or with daily doses of CDDP (1.5 mg/kg) or with the vehicle solution (0.9% NaCl). At day 15, animals were sacrificed, the legs were amputated at the proximal end of the femur, and the inhibition of tumor growth was determined according to the difference in weight of the tumor-bearing leg and the healthy leg of the animals expressed as a percentage referring to the control animals. Body weight was measured every 2 days and was taken as a parameter for systemic toxicity.

[4] = Nephrotoxicity: urinary biomarkers (uTP, NAG) in Sprague Dawley rats; assay type: in vivo, rat; conditions: single i.p. 1.5 mg/kg, urine 24, 72, 120 h
Protocol: Figure 5 Neurotoxicity studies. […] Bar: 500 µm. […] Nephrotoxicity studies. […] Error bars indicate the S.D. The potential nephrotoxic effect of HydroCuP was evaluated by measuring some specific biomarkers in urines obtained from 8-week-old male Sprague Dawley rats treated with a single i.p. injection of HydroCuP and CDDP. Urines of the treated animals were collected after 24, 72 and 120 h, and urinary total protein (uTP) and N-acetyl-β-D-glucosaminidase (NAG) were evaluated as signs of nephrotoxicity. […] On the contrary, treatment with HydroCuP determined a 24 h excretion of uTP roughly 12 times lower than that recorded with CDDP (Fig. 5, panel D). Following 120 h, the levels of uTP excreted by HydroCuP were 11 times lower compared with the reference metallodrug. Eight-week-old male Sprague Dawley rats were randomly allocated to five groups (five animals per group) and treated with a single i.p. injection of HydroCuP (50 mg/kg) or the vehicle solution (0.2 mL saline solution, control). Cisplatin (1.5 mg/kg,) was also used under the same experimental conditions for comparison purposes. […] Later, urines were centrifuged (150 g for 10 minutes at room temperature) to discard debris and aliquoted to measure creatinine, uTP and NAG. Urine creatinine assays were performed using creatinine assay kit from Sigma Chemical Co. (St. Louis, MO). uTPs were measured by means of BioRad Total Protein Test (Hercules, CA). Urinary NAG was measured spectrophotometrically with the NAG kit (Roche diagnostics, Basel, Switzerland) according to the manufacturer’s protocols. uTP and NAG are expressed as grams per millimoles of creatinine (g mmol^−1 creatinine).

[5] = design: method as in PMID 24035926; conditions: patients under cisplatin treatment; cited from earlier work
[6] = test system: DRG explants from 15 day-embryonic Sprague-Dawley rats; test: Neurotoxicity: neurite elongation in DRG explants; conditions: 48 h, DRG explants with NGF; for Neurotoxic effect (neurite elongation): OXP 5, 7.5, 10 μM, HydroCuP 5, 10, 20 μM
Protocol: To investigate the potential neurotoxic effect of HydroCuP, we employed a well-established in vitro model based on organotypic cultures of DRG from 15-day-old rat embryos. Neurite elongation under NGF influence was evaluated in DRG explants. […] For comparison purposes, the effect induced by the reference drugs OXP and CDDP was also tested.
OXP and HydroCuP toxicity at 48 h in DRG explants from 15 day-embryonic Sprague-Dawley rats. Representative images of neurite length in maturing DRG explants with different concentrations of OXP and HydroCuP (A). Bar: 500 µm.
DRG from E15 Sprague-Dawley rats (Envigo, San Pietro al Natisone, Italy) were aseptically removed and cultured onto a single layer of rat tail collagen surfaces in 35-mm dishes as previously described[36].
The DRG were incubated in AN2 medium [MEM added with 1.4 mM L-glutamine (Euroclone, Pero, Italy), 10% calf bovine serum (Hyclone, Thermo Scientific, Logan, UT) 50 µg/ml ascorbic acid, 0.6% glucose (Sigma-Aldrich) in the presence of 5 ng/ml nerve growth factor (NGF; Life Technologies, Monza, Italy) in a 5% CO2 humidified incubator at 37 °C.
To evaluate the neurotoxicity of HydroCuP and OXP, the DRG explants were treated for 2 h with NGF and subsequently exposed to each drug at different concentrations for 48 h. OXP was tested at 5, 7.5 and 10 μM while 5, 10 and 20 μM of HydroCuP was used. DRG treated with AN2 medium supplemented with 5 ng/ml NGF alone were used as controls. Phase-contrast micrographs were taken, and the length of the longest neurite in each DRG was measured by Image J (NIH, Bethesda, MD), using a standard calibration grating photographed at the same magnification. A compound is considered neurotoxic when the mean neurite elongation is reduced by 50% or more after drug exposure vs control.

[7] = patients, reported by the Food and Drug Administration; cited from earlier work
[8] = test system: LoVo colorectal oxaliplatin-sensitive xenograft; test: In vivo activity toward LoVo (OXP-sensitive) tumor xenograft in BALB/c nu/nu mice
Protocol: (§5) To this aim, we developed the OXP-sensitive and OXP-resistant LoVo xenografts in BALB/c nu/nu mice. […] OXP-sensitive or OXP-resistant LoVo cells (1 × 10^7) were injected in the flank of mice. Once tumor was established (tumor volumes of about 0.4 cm^3, around 14 days after tumor inoculation), mice were randomly divided into six groups (6 animals per group, 8 controls). The HydroCuP-treated groups (6 mice each group) received daily 30 mg/kg by i.p. injection and the OXP-treated group was given 2 mg/kg by i.p. injection. At day 30, animals were sacrificed, and the inhibition of tumor growth was determined (Fig. 4, panel A). Measurements of body weights were recorded from day 14 every 2 days until the experimental endpoint (Fig. 4, panel B).
(§6) (A) LoVo and LoVo-OXP tumor xenografts in 6-week-old BALB/c nu/nu mice by injecting 1 × 10^7 tumor cells subcutaneously on the left dorsal flank. After 24 h from tumor implantation, mice randomly divided into six groups (6 animals per group). Chemotherapy delayed until day 14 (tumor volumes of about 0.4 cm^3). From day 14, HydroCuP dosed daily at 30 mg/kg i.p., OXP dosed daily at 2 mg/kg i.p. At day 30, animals sacrificed, and the inhibition of tumor growth determined by comparing the volume of the control group and the treatment group expressed as percentage referred to the control animals. Error bars indicate the S.D. *p < 0.05, **p < 0.01, with respect to control. […] Body weight was measured every two days and was taken as a parameter of systemic toxicity. The error bars indicate the S.D. **P < 0.01; *P < 0.05.
(§7) LoVo and LoVo-OXP tumor xenografts were established in 6-week-old BALB/c nu/nu mice by injecting 1 × 10^7 tumor cells subcutaneously (100 μL in serum free medium) on the left dorsal flank. After 24 h from tumor implantation, mice were randomly divided into six groups (6 animals per group, 8 controls). Chemotherapy was delayed until the tumor was about 0.4 cm^3 (day 14). From day 14, HydroCuP was dosed daily at 30 mg/kg i.p. whereas OXP was dosed daily at 2 mg/kg i.p. Measurements of body weights and tumor volumes were recorded from day 14 every 2 days until the experimental endpoint. The long axis (L) and the short axis (S) were measured with callipers, and the tumor volume (V) was calculated using the following equation: V = SxSxL/2. At day 30, animals were sacrificed, and the inhibition of tumor growth was determined by comparing the volume of the control group and the treatment group expressed as percentage referred to the control animals.

[9] = test system: LoVo colorectal oxaliplatin-resistant xenograft; test: In vivo activity toward LoVo-OXP (OXP-resistant) tumor xenograft in BALB/c nu/nu mice
Protocol: as §5, §6, §7

[10] = Early treatment, 1.5 mg/kg i.p. days 3, 5, 7, 9, 11, 13
[11] = 2 mg/kg daily i.p. from day 14, day 30

| Compound | IC50 [1] [µM] | IC50 [2] [µM] | Average tumor weight (mean ± S.D., g) [3, 10] [g] | Inhibition of tumor growth (%) [3, 10] [%] | Body weight changes ([3]; Early treatment, 15 days) | Average tumor weight (mean ± S.D., g) ([3]; Intermediate treatment, 1.5 mg/kg daily i.p. day 7-14) [g] | Inhibition of tumor growth (%) ([3]; Intermediate treatment, 1.5 mg/kg daily i.p. day 7-14, 1.5 mg/kg) | Body weight changes ([3]; Intermediate treatment) | Average tumor weight (mean ± S.D., g) ([3]; Late treatment, 1.5 mg/kg daily i.p. from day 9) [g] | Inhibition of tumor growth (%) ([3]; Late treatment, 1.5 mg/kg daily i.p. from day 9, 1.5 mg/kg) | NAG [4] | uTP excretion [4] | Patients with irreversible renal damage [5] | Neurotoxic effect (neurite elongation) [6] | Rate of symptomatic neurotoxicity with any severity [7] | Reduction of neurite length ([6]; 7.5 µM) [%] | Body weight loss ([8]; 2 mg/kg daily i.p.) | Inhibition of tumor growth [8, 11] | Body weight loss ([9]; 2 mg/kg daily i.p.) | Inhibition of tumor growth [9, 11] [%] |
| --- | --- | --- | --- | --- | --- | --- | --- | --- | --- | --- | --- | --- | --- | --- | --- | --- | --- | --- | --- | --- |
| [NH2][Pt]([NH2])([Cl])[Cl] [CDDP, cisplatin, reference compound] | 68.2 ± 4.58 | 60.6 ± 6.28 | 0.168 ± 0.10 | 73.66 | substantial weight loss | 0.061 ± 0.03 | 87% and 87.84% | elevated weight loss | 0.118 ± 0.10 | 73% and 72.68% | significant increase | significant increase of uTP excretion | about one-third | significantly reduced neurite elongation in a dose-dependent manner |  |  |  |  |  |  |
| O=C1[O][Pt]2([NH][C@@H]3CCCC[C@H]3[NH]2)[O]C1=O [OXP, oxaliplatin] | 30.2 ± 2.34 | 22.2 ± 4.75 |  |  |  |  |  |  |  |  |  |  |  | significantly reduced neurite elongation in a dose-dependent manner | more than 70% | 50 | about 23% | about 55% | about 23% | 20 |
